Laboratory results taken from patent publication US11104735B2, “Inhibition of cytokine-induced SH2 protein in NK cells” (The Walter and Eliza Hall Institute of Medical Research, priority 2015, dated 2021).
Residues, ends and D or L forms follow the SMILES beside them. *: point of attachment. Cbz = O=C(OCc1ccccc1)*

Tests used:
[1] = system: JAK1 phosphorylation in 293T cells; experiment: JAK1 phosphorylation in 293T cells co-expressing JAK1 and CIS; format: cell-based, human; settings: pre-incubation of 293T cells, 10 μM for 4 h
Experimental: (a) Isothermal calorimetry (ITC) was used to measure the affinity of hCIS-SH2-BC binding to phosphopeptides corresponding to tyrosines within the JAK1/3 kinase domain activation loops and IL-2Rβ cytoplasmic domains. Tabular view of the results, showing mean±S.D. from two independent experiments. N.D.=Not detectable, p=phosphorylated. […] In some instances, cells were treated with the proteasome inhibitor, MG132. […] Protein expression levels are shown by anti-FLAG blots of whole cell lysates (lower panels). […] Protein levels are shown in the lower panels by anti-FLAG blot of cell lysates. (e) Using a cell-free system, FLAG-JAK1 was incubated with (+) and without (−) the CIS-E3 ligase complex (CIS-SH2-BC with Cullin5 and Rbx2), together with ubiquitin, E1 and E2 enzymes at 37° C. for the times indicated. JAK1 ubiquitination was visualised by Western blotting with antibodies to […]. […] Data were normalised to no-CIS controls. […] See also FIG. 9.
Lysates were clarified by centrifugation at 16,060×g for 15 min at 4° C. Protein concentrations were determined by the BCA method (Pierce, Rockford). […] In some instances, cells were pre-treated with 10 μM MG132 for 4 h to block proteasomal degradation. 48 h post-transfection cells were lysed in KALB buffer (Nicholson et al., 1995). FLAG proteins were immunoprecipitated using M2-beads (Sigma) and proteins eluted in SDS sample buffer. […]

primary human NK cells = experiment: Immunoblot of IL-15 treated primary human NK cells; format: cell-based; settings: 2 h with IL-15, 10 μM
Experimental: Patient-derived human NK cells (a) or NK lymphoma cell lines (b) SNK-10, (c) NKL and NK6, (d) NK-92 were washed free of cytokine and rested for 4 h (a) or 16 h (b-d) prior to treatment with IL-15 for the indicated times. In some instances, cells were incubated with the proteasomal inhibitor MG132 (10 μM). Cells were lysed and analysed by immunoblotting with antibodies to the indicated phosphorylated (p) and total proteins.

wild-type NK cells = experiment: JAK1 phosphorylation in IL-15 stimulated wild-type NK cells; format: cell-based, mouse; settings: IL-15 50 ng/ml
Experimental: (a) Cultured NK cells from wild-type and Cish^−/− mice were lysed, mRNA purified and analysed by RNAseq. Mean RPKM values for duplicate samples (left panel). JAK1 mRNA levels were analysed by Q-PCR (right panel). Mean±S.D., n=3. (b) 4-12% Coomassie-stained SDS-PAGE gel showing purified hCIS-SH2-BC complex, elongin B and elongin C. (c) Isothermal calorimetry (ITC) was used to measure the affinity of hCIS-SH2-BC binding to phosphopeptides corresponding to tyrosines within the JAK1/3 kinase domain activation loops and IL-2Rβ and γ cytoplasmic domains. […] were titrated into a 30 μM solution of the GST-CIS-SH2-BC ternary complex. ITC titration curves and tabular view of some results (inset) showing mean±S.D. from two independent experiments. N.D.=Not detectable, p=phosphorylated. The titration curves all fitted well to a single-site model. (d) Cultured wild-type NK cells were washed and starved of IL-15 for 4 h, with and without addition of the proteasomal inhibitor, MG132. Cells were then stimulated with 50 ng ml^−1 IL-15 for the indicated times, prior to cell lysis and Western blotting with antibodies to the indicated proteins. […]
Lysates were clarified by centrifugation at 16,060×g for 15 min at 4° C. Protein concentrations were determined by the BCA method (Pierce, Rockford). […]

LWT1 melanoma cells = experiment: LWT1 experimental lung metastasis; format: in vivo, mouse; settings: Cish−/− mice, 7.5×10^5 cells i.v., day 14
Experimental: Mice were monitored for tumor development and were euthanized at the point of abdominal swelling and discomfort. Improved survival between groups was assessed by the Log-rank Mantel-Cox test. (D) Groups of 5-15 B6.WT (Cish^+/+) or B6.Cish^-/- mice were injected i.v. with 5×10^5 RM-1 prostate carcinoma cells and treated with either cIg, anti-CD96, anti-PD-1, anti-CTLA-4 or anti-PD1/anti-CTLA-4 combination (250 μg i.p. each on days 0 and 3). (E) Groups of 8-10 B6.WT (Cish^+1 or B6.Cish^-/- mice were injected i.v. with 7.5×10^5 B16F10 melanoma cells and treated with either 250 μg cIg or anti-CD96 mAb (i.p. on days 0 and 3). (F) Groups of 5-6 B6.WT (Cish^+1 or B6.Cish^-/- mice were injected i.v. with 7.5×10^5 LWT1 melanoma cells and treated with either vehicle or PLX4720 (10 mg/kg i.p., daily from day 0 to 6). Lungs were harvested on (A, D, F) day 14 or (B, E) day 13 and macrometastases counted. Individual mice are shown by each symbol and the results are plotted as mean±SEM. Statistically significant differences as indicated were determined by one-way ANOVA with Tukey post-test (for multiple comparisons) (*: […]; **: p<0.01; ***: p<0.001; ****: p<0.0001). […] Lungs were harvested on day 14 and macrometastases counted. […] Lungs were harvested on day 14 and either fixed in Bouin's solution and B16F10 metastases counted^44 or analysed for NK cell expansion by flow cytometry. […]

CIS = target: T1, CIS (Homo sapiens, UniProt Q9NSE2, DEL174-202); experiment: Kinase inhibition assay with competitor of CIS-SH2 binding; format: biochemical; settings: for Effect on CIS-mediated inhibition of JAK1 JH1: CIS-SH2-BC, excess JAK1-Y1034 phosphopeptide as competitor
T1 construct: fragment: residues 66-258 with a deletion of; GST (N); made in house; host or cells: E. coli BL21(DE3)
Experimental: (a) Cultured NK cells from wild-type and Cish^−/− mice were lysed, mRNA purified and analysed by RNAseq. Mean RPKM values for duplicate samples (left panel). JAK1 mRNA levels were analysed by Q-PCR (right panel). Mean±S.D., n=3. (b) 4-12% Coomassie-stained SDS-PAGE gel showing purified hCIS-SH2-BC complex, elongin B and elongin C. (c) Isothermal calorimetry (ITC) was used to measure the affinity of hCIS-SH2-BC binding to phosphopeptides corresponding to tyrosines within the JAK1/3 kinase domain activation loops and IL-2Rβ and γ cytoplasmic domains. […] were titrated into a 30 μM solution of the GST-CIS-SH2-BC ternary complex. ITC titration curves and tabular view of some results (inset) showing mean±S.D. from two independent experiments. N.D.=Not detectable, p=phosphorylated. The titration curves all fitted well to a single-site model. (d) Cultured wild-type NK cells were washed and starved of IL-15 for 4 h, with and without addition of the proteasomal inhibitor, MG132. Cells were then stimulated with 50 ng ml^−1 IL-15 for the indicated times, prior to cell lysis and Western blotting with antibodies to the indicated proteins. (e) Kinase inhibition assays were performed with the kinase domain (JH1) of JAK1 in the presence of CIS-SH2-BC with and without excess JAK1-Y1034 phosphopeptide as a competitor. […] Data were normalised to no-CIS controls.
(c) Alternatively, 50 μM JAK1-Y1034 or JAK3-Y980,Y981 phosphopeptides were used as competitor. Data were normalised to no-CIS controls. All CIS constructs contained the SOCS box and were expressed and purified as a trimeric complex consisting of CIS, elongin B and elongin C.
Kinase inhibition assays were performed essentially as described (Babon et al., 2012). Briefly, 130 μM STAT5b peptide (SEQ ID NO:18 […]) was incubated with 5 nM JAK1 at 25° C. for 30-60 min in 20 mM Tris pH 8.0, 100 mM NaCl, 5 mM 2-mercaptoethanol, 0.2 mg ml^−1 bovine serum albumin, 2 mM MgCl2, 100 μM ATP and 1 mCi γ-[32P]ATP. Recombinant CIS-SH2-BC was present at concentrations ranging from 0-30 μM. After incubation, the reaction was spotted onto P81 phosphocellulose paper and quenched in 5% H3PO4. The paper was washed (4×200 ml, 15 min) with 5% H3PO4 and exposed to a phosphorimager plate (Fuji). Quantitation was performed using Fuji software and IC50 curves calculated using Graphpad Prism.

[2] = system: advanced malignant melanoma; settings: patients; cited from earlier work
[3] = target: T2, JAK3 phosphopeptide (JAK3-Y980,Y981) (Homo sapiens, UniProt P52333); experiment: ITC, CIS constructs binding to JAK3 phosphopeptide; settings: CIS constructs with elongins B and C
T2 construct: purchased Genscript
Experimental: 300 μM phosphopeptides were titrated into a 30 μM solution of the GST-CIS-SH2-BC ternary complex. ITC titration curves are shown. The titration curves all fitted well to a single-site model.
Isothermal calorimetric titrations were performed with a Microcal ITC200 (GE Healthcare). Phosphopeptides were obtained from Genscript. An optimised GST-CIS protein construct was prepared in which the internal PEST region ([…]) was deleted. The resulting ternary GST-CIS-SH2-SB complexes were dialysed against buffer (20 mM Tris pH 8.0, 100 mM NaCl, 2 mM 2-mercaptoethanol). Experiments were performed at 298 K unless stated otherwise. Typically, 12×3.15 μl injections of 300 μM phosphopeptides were titrated into a 30 μM solution of the GST-CIS-SH2-SB ternary complex. The heat of dilution of GST-CIS-SH2-BC was subtracted from the raw data of the binding experiment. Data were analysed using the evaluation software, Microcal Origin version 5.0. The binding curve fitted a single-site binding mode and all KD values were determined from duplicate experiments.

CC(C)C[C@@H](C=O)NC(=O)[C@H](CC(C)C)NC(=O)[C@H](CC(C)C)NC(=O)OCc1ccccc1 [MG132] (Cbz-Leu-Leu-Leu-aldehyde)
Effect on CIS-mediated regulation of JAK1 phosphorylation [1]: reduced CIS-mediated regulation of JAK1 phosphorylation
JAK1 phosphorylation (primary human NK cells): remained reduced
Total JAK1 and CIS levels (primary human NK cells): increase total JAK1 and CIS levels
Phosphorylation of endogenous JAK1 (wild-type NK cells): increase in phosphorylation of endogenous JAK1

CCCS(=O)(=O)Nc1ccc(F)c(C(=O)c2c[nH]c3ncc(Cl)cc23)c1F [PLX4720]
LWT1 lung metastasis (LWT1 melanoma cells): further reduced

O=P(O)(O)Oc1ccccc1 [phenyl phosphate, reference compound]
Effect on CIS inhibition of JAK1 kinase activity (CIS; excess phenyl phosphate as competitor, all CIS constructs): abrogated the ability of all CIS constructs to inhibit JAK1 kinase activity

Ipilimumab: antibody-based therapy that targets CTLA-4
Tumour responses [2]: 10-12%

JAK1-Y1034: phosphopeptide corresponding to a singly-phosphorylated JAK1 activation loop (Tyr1034)
Effect on CIS inhibition of JAK1 kinase activity (CIS; 50 μM free phosphopeptide as competitor): dramatically reduced the ability of CIS to inhibit JAK1 kinase activity
Effect on CIS-mediated inhibition of JAK1 JH1 (CIS; listed as JAK1 activation loop peptide): only partial reduction of inhibition
Effect on CIS-mediated inhibition of JAK1 JH1 (CIS; listed as pY1034 peptide): partially reduced CIS-mediated inhibition

full-length CIS: human full-length CIS protein expressed with elongins B and C as trimeric complex
Binding affinity (ITC) to JAK3 phosphopeptide [3]: comparable affinity
